From publication PMC7310027, “PET imaging of soluble epoxide hydrolase in non-human primate brain with [^18F]FNDP” (EJNMMI Research, 2020)
Read-outs that look alike come from different tables or passages of the source.

How the values were obtained:
[1] = design: method as in PMID 27417650; settings: baboon brain; cited from earlier work
[2] = Baboon plasma radiometabolite analysis by HPLC; type: in vivo, baboon (Papio anubis)
Protocol: (§1) Measurement of the arterial plasma input function was conducted through collection of ~ 40 blood samples over the course of the 90-min dynamic PET study. […] Samples were then centrifuged at 1200 × g, and the plasma radioactivity was measured with a cross-calibrated PerkinElmer Wizard 2480 automatic gamma counter.
Select plasma samples (0, 5, 10, 20, 30, 60, and 90 min) were analyzed for radiometabolites using high-performance liquid chromatography (HPLC). The modified column-switching HPLC method was used. The HPLC system consisting of a 1260 infinity quaternary pump, a 1260 infinity column compartment module, a 1260 infinity UV detector, and a Raytest GABI Star radiation detector, was operated with OpenLab CDS EZChrom (A.01.04) software. […] After 1 min of isocratic elution, analytical mobile phase composed of 65% acetonitrile and 35% water with 0.06 M trimethylamine (at pH = 7.2, adjusted with phosphoric acid) was applied to direct non-polar compounds trapped on the capture column to an analytical column (Gemini C18(2), 10 μm, 4.6 × 250 mm) and detectors at 2 mL/min. The HPLC system was standardized for mass using non-radioactive FNDP prior to analysis of the blood plasma samples, which were spiked with 5 μL of non-radioactive FNDP at a concentration of 1 mg/mL.

[3] = tested on: soluble epoxide hydrolase (sEH); assay: Baboon [^18F]FNDP dynamic PET, baseline scans with kinetic modelling (2TCM, 1TCM, Logan); type: in vivo, baboon (Papio anubis)
Protocol: PET images were acquired using a CPS/CTI high-resolution research tomograph (HRRT), which has an axial resolution (FWHM) of 2.4 mm and in-plane resolution of 2.4–2.8 mm. […] These blocking studies were performed 27 to 43 days apart from each other to ensure full animal recovery. The animals had no food for 12 h prior to each PET study. Anesthesia was induced with intramuscular ketamine (7.5–10 mg/kg) and maintained with a continuous intravenous infusion of propofol at 0.3–0.4 mg/kg/min throughout the PET experiment. One venous catheter was inserted for the radioligand injection, and one arterial catheter was inserted to obtain arterial blood samples. Baboons were intubated to facilitate respiration, and circulatory volume was maintained by constant infusion of isotonic saline. Physiological vital signs including heart rate, blood pressure, electrocardiogram, and oxygen saturation were monitored continuously throughout the study.
The animals were positioned in the PET scanner with the head immobilized using a thermoplastic mask. A 6-min transmission scan was acquired using a rotating ^137Cesium source for generating attenuation maps. The 90-min dynamic PET acquisition was then started in three-dimensional list mode simultaneously with an intravenous bolus injection of [^18F]FNDP. […]
as §1
The 90 min of PET data were binned into 30 frames: four 15-s, four 30-s, three 1-min, two 2-min, five 4 -min, and 12 5-min frames. Images were reconstructed using the 3D iterative ordered subset expectation maximization (OS-EM) algorithm (with six iterations and 16 subsets) with correction for radioactive decay, deadtime, attenuation, scatter, and randoms. The reconstructed image space consisted of cubic voxels, each 1.22 mm^3 in size, and spanning dimensions of 31 cm × 31 cm (transaxially) and 25 cm (axially).
The software package PMOD (v3.7, PMOD Technologies Ltd, Zurich, Switzerland) was used for the image processing and subsequent kinetic analysis. The previously acquired T1-weighted brain MRI images for the baboon were co-registered to the reconstructed dynamic PET images acquired in this study. Through manually matching the co-registered MRI to the INIA19 Template and NeuroMaps Atlas for Primate Brain Image Parcellation and Spatial Normalization, 13 representative baboon brain volumes of interest (VOIs) were defined, […] Regional time activity curves (TACs) were then generated for both baseline and blocking PET scans using those VOIs.
Next, kinetic modeling was performed based on the TACs and the metabolite-corrected arterial plasma input functions. For brain uptake, the primary outcome measure was the regional brain distribution volume (VT) of [^18F]FNDP, defined as concentration of the radiotracer in regional tissue relative to that in blood at equilibrium. We evaluated which compartmental models (e.g., two-tissue-three-compartment (2TCM) or one-tissue-two-compartment (1TCM)) best described the [^18F]FNDP PET data, using statistical model selection criteria, such as the Akaike information criterion. For comparison, the Logan graphical method (t* = 30 min) was also used to compute regional VT, as well as generating voxel-wise parametric images of VT [31].

[4] = Murine radiometabolite analysis (blood and brain) by RP-HPLC; type: in vivo, CD-1 mice
Protocol: Male CD-1 mice (25–26 g) were injected via the lateral tail vein with 37 MBq of high specific activity (1.1 TBq/μmol or 29.7 Ci/μmol) [^18F]FNDP. The mice were sacrificed by cervical dislocation at 10 and 30 min after injection, and a terminal blood sample was obtained. The mouse brains were rapidly removed, homogenized in 2 mL of ACN:H2O 50%–50% (vol) with 0.06 M ammonium formate to extract parent tracer and radiometabolites, centrifuged at 20,000 g at 4 °C. Resulting supernatants were analyzed by reverse-phase (RP)-HPLC.

[5] = Amygdala, baseline, mean ± SD of 3 baboons
[6] = Caudate, baseline, mean ± SD of 3 baboons
[7] = Cerebellum, baseline, mean ± SD of 3 baboons
[8] = Corpus callosum, baseline, mean ± SD of 3 baboons
[9] = Frontal gyrus, baseline, mean ± SD of 3 baboons
[10] = Globus pallidus, baseline, mean ± SD of 3 baboons
[11] = Hippocampus, baseline, mean ± SD of 3 baboons
[12] = Hypothalamus, baseline, mean ± SD of 3 baboons
[13] = Insula, baseline, mean ± SD of 3 baboons
[14] = Occipital cortex, baseline, mean ± SD of 3 baboons
[15] = Putamen, baseline, mean ± SD of 3 baboons
[16] = Temporal gyrus, baseline, mean ± SD of 3 baboons
[17] = Thalamus, baseline, mean ± SD of 3 baboons
[18] = White matter, baseline, mean ± SD of 3 baboons

For `O=C(NCCC(c1ccccc1)c1ccccc1)c1ccc([18F])nc1` [[^18F]FNDP, N-(3,3-diphenylpropyl)-6-^18F-fluoronicotinamide], the “brain uptake, standardized uptake value (SUV)” value [1] is given as 4, the “fraction of radioactivity by HPLC (Met-1, Met-2, parent)” value (from here on “fraction of radioactivity by HPLC”) ([2]; Baboon blood (10 min)) is given as 77.0 ± 3.6% and the “fraction of radioactivity by HPLC” value ([2]; Baboon blood (30 min)) is given as 46.5 ± 6.4%. The “fraction of radioactivity by HPLC” value ([2]; Baboon blood (60 min)) was 28.3 ± 9.3%, the “fraction of radioactivity by HPLC” value ([2]; Baboon blood (90 min)) was 21.8 ± 7.0% and the “suggested fraction of brain radioactivity that is parent” value ([2]; baboon brain, extrapolated) was greater than 95%. For the same compound, the “1TCM K1” value [3, 5] was 0.14 ± 0.03 mL/cm^3/min, the “2TCM K1” value [3, 5] was 0.14 ± 0.03 mL/cm^3/min and the “1TCM K1” value [3, 6] was 0.21 ± 0.05 mL/cm^3/min. The “2TCM K1” value [3, 6] was 0.21 ± 0.05 mL/cm^3/min, the “1TCM K1” value [3, 7] was 0.18 ± 0.03 mL/cm^3/min and the “2TCM K1” value [3, 7] was 0.19 ± 0.03 mL/cm^3/min. For the same compound, the “1TCM K1” value [3, 8] was 0.15 ± 0.03 mL/cm^3/min, the “2TCM K1” value [3, 8] was 0.17 ± 0.03 mL/cm^3/min and the “1TCM K1” value [3, 9] was 0.16 ± 0.04 mL/cm^3/min. For the same compound, the “2TCM K1” value [3, 9] was 0.18 ± 0.04 mL/cm^3/min, the “1TCM K1” value [3, 10] was 0.17 ± 0.03 mL/cm^3/min and the “2TCM K1” value [3, 10] was 0.19 ± 0.03 mL/cm^3/min. For the same compound, the “1TCM K1” value [3, 11] was 0.14 ± 0.03 mL/cm^3/min, the “2TCM K1” value [3, 11] was 0.15 ± 0.04 mL/cm^3/min and the “1TCM K1” value [3, 12] was 0.14 ± 0.03 mL/cm^3/min. For the same compound, the “2TCM K1” value [3, 12] was 0.15 ± 0.03 mL/cm^3/min, the “1TCM K1” value [3, 13] was 0.20 ± 0.05 mL/cm^3/min and the “2TCM K1” value [3, 13] was 0.22 ± 0.05 mL/cm^3/min. The “1TCM K1” value [3, 14] was 0.17 ± 0.06 mL/cm^3/min, the “2TCM K1” value [3, 14] was 0.18 ± 0.06 mL/cm^3/min and the “1TCM K1” value [3, 15] was 0.22 ± 0.05 mL/cm^3/min. The “2TCM K1” value [3, 15] was 0.23 ± 0.05 mL/cm^3/min, the “1TCM K1” value [3, 16] was 0.16 ± 0.03 mL/cm^3/min and the “2TCM K1” value [3, 16] was 0.17 ± 0.03 mL/cm^3/min. The “1TCM K1” value [3, 17] was 0.16 ± 0.03 mL/cm^3/min, the “2TCM K1” value [3, 17] was 0.17 ± 0.03 mL/cm^3/min and the “1TCM K1” value [3, 18] was 0.17 ± 0.04 mL/cm^3/min. For the same compound, the “2TCM K1” value [3, 18] was 0.18 ± 0.04 mL/cm^3/min, the “time of peak of regional brain TACs post-injection” value ([3]; all regions at baseline) was less than 15 min and the “K1 (2TCM)” value ([3]; baseline scan, Baboon3) was 0.151 ± 0.021 mL/cm^3/min. For the same compound, the Kp ([3]; male, baboon (Papio anubis), brain (cerebellum), intravenous, Cerebellum, baseline, mean ± SD of 3 baboons, read-out: 1TCM VT) was 7.33 ± 0.45, the Kp ([3]; male, baboon (Papio anubis), brain (cerebellum), intravenous, Cerebellum, baseline, mean ± SD of 3 baboons, read-out: 2TCM VT) was 7.66 ± 0.72 and the Kp ([3]; male, baboon (Papio anubis), brain (globus pallidus), intravenous, Globus pallidus, baseline, mean ± SD of 3 baboons, read-out: 1TCM VT) was 9.07 ± 0.66. The Kp ([3]; male, baboon (Papio anubis), brain (globus pallidus), intravenous, Globus pallidus, baseline, mean ± SD of 3 baboons, read-out: 2TCM VT) was 9.74 ± 1.02, the Kp ([3]; male, baboon (Papio anubis), brain (globus pallidus), intravenous, Globus pallidus, baseline, mean ± SD of 3 baboons, read-out: Logan VT) was 9.44 ± 0.92 and the Kp ([3]; male, baboon (Papio anubis), brain (occipital cortex), intravenous, Occipital cortex, baseline, mean ± SD of 3 baboons, read-out: 1TCM VT) was 7.39 ± 1.56. For the same compound, the Kp ([3]; male, baboon (Papio anubis), brain (occipital cortex), intravenous, Occipital cortex, baseline, mean ± SD of 3 baboons, read-out: 2TCM VT) was 7.82 ± 1.82, the Kp ([3]; male, baboon (Papio anubis), brain (occipital cortex), intravenous, Occipital cortex, baseline, mean ± SD of 3 baboons, read-out: Logan VT) was 7.67 ± 1.63 and the total distribution volume (VT, Logan) ([3]; male, baboon (Papio anubis), brain (range over regions), intravenous, baseline, 3 baboons) was 7.63 to 13.3. It also gave a Kp ([3]; male, baboon (Papio anubis), brain (white matter), intravenous, White matter, baseline, mean ± SD of 3 baboons, read-out: 1TCM VT) of 8.43 ± 0.89, a Kp ([3]; male, baboon (Papio anubis), brain (white matter), intravenous, White matter, baseline, mean ± SD of 3 baboons, read-out: 2TCM VT) of 9.29 ± 1.08 and a Kp ([3]; male, baboon (Papio anubis), brain (white matter), intravenous, White matter, baseline, mean ± SD of 3 baboons, read-out: Logan VT) of 9 ± 1.03. For the same compound, the Kp ([3]; male, baboon (Papio anubis), brain, corpus callosum, intravenous, Corpus callosum, baseline, mean ± SD of 3 baboons, read-out: 1TCM VT) was 8.32 ± 0.91, the Kp ([3]; male, baboon (Papio anubis), brain, corpus callosum, intravenous, Corpus callosum, baseline, mean ± SD of 3 baboons, read-out: 2TCM VT) was 9.28 ± 0.9 and the Kp ([3]; male, baboon (Papio anubis), brain, corpus callosum, intravenous, Corpus callosum, baseline, mean ± SD of 3 baboons, read-out: Logan VT) was 9.06 ± 0.99. The Kp ([3]; male, baboon (Papio anubis), brain, frontal gyrus, intravenous, Frontal gyrus, baseline, mean ± SD of 3 baboons, read-out: 1TCM VT) was 9.58 ± 0.6, the Kp ([3]; male, baboon (Papio anubis), brain, frontal gyrus, intravenous, Frontal gyrus, baseline, mean ± SD of 3 baboons, read-out: 2TCM VT) was 10.5 ± 1.01 and the Kp ([3]; male, baboon (Papio anubis), brain, frontal gyrus, intravenous, Frontal gyrus, baseline, mean ± SD of 3 baboons, read-out: Logan VT) was 10.3 ± 0.91. For the same compound, the Kp ([3]; male, baboon (Papio anubis), brain, intravenous, baboon brain, baseline, read-out: baseline VT) was 10.9 ± 2.4, the Kp ([3]; male, baboon (Papio anubis), brain, temporal gyrus, intravenous, Temporal gyrus, baseline, mean ± SD of 3 baboons, read-out: Logan VT) was 9.52 ± 0.57 and the “fraction of radioactivity by HPLC” value ([4]; Mouse blood (10 min)) was 63.4 ± 4.4%. The “fraction of radioactivity by HPLC” value ([4]; Mouse blood (30 min)) was 50.1 ± 10.5%, the “fraction of radioactivity by HPLC” value ([4]; Mouse brain (10 min)) was 99.2 ± 0.3% and the “fraction of radioactivity by HPLC” value ([4]; Mouse brain (30 min)) was 98.3 ± 0.3%.
